Data from US10093675B2, “6,8-disubstituted-9-(heterocyclyl)purines, compositions containing these derivatives and their use in cosmetic and medicinal applications” (USTAV EXPERIMENTALNI BOTANIKY AV CR, V.V.I., priority 2014, dated 2018).

Experiments:
[1] = tested on: excised wheat leaf tips (Triticum aestivum cv. Hereward); test: Senescence inhibition on winter wheat leaf segments (retention of chlorophyll); type: in vivo; settings: 10^−4 mol/L; 96 hours in the dark; activity of kinetin set at 100%
Procedure: (§1) Seeds of winter wheat, Triticum aestivum cv. Hereward, were washed under running water for 24 hours and then sown on vermiculite soaked with Knop's solution. They were placed in the grown chamber at 25° C. with a 16/8 hours light period at […]. After 7 days, the first leaf was fully developed and the second leaf had started to grow. A tip section of the first leaf, approximately 35 mm long, was removed from 5 seedlings and trimmed slightly to a combined weight of 100 mg. The basal ends of the five leaf tips were placed in the wells of a microtiter polystyrene plate containing […] of a cytokinin solution each. The entire plate was inserted into a plastic box lined with paper tissues soaked in distilled water to prevent leaf sections from drying out. After 96 hours incubation in the dark at 25° C., the leaves were removed and chlorophyll extracted by heating at 80 C for 10 min in 5 ml of 80% ethanol (v/v). The sample volume was then restored to 5 ml by the addition of 80% ethanol (v/v). The absorbance of the extract was recorded at 665 nm. In addition, chlorophyll extracts from fresh leaves and leaf tips incubated in deionized water were measured. From the obtained data, the concentration with highest activity was selected for each compound tested. Relative activity of the compound at this concentration was calculated (see Table 6 below). The activity obtained for 10^−4 M kinetin (Kin) was set as 100%. The values shown are means of five replicates and the whole experiment was repeated twice.
The compounds to be tested were dissolved in dimethylsulfoxide (DMSO) and the solution brought up to 10^−3 M with distilled water. […] As summarized in Table 6 below, the presence of C-8 substitutent was beneficial and led to increase of antisenescent properties.

[2] = tested on: detached leaves of Triticum aestivum cv. Hereward; test: Membrane lipid peroxidation (MDA, TBA method) in detached wheat leaves during dark senescence; type: in vivo; settings: four days in the dark, Control 18.9 (±2.2)
Procedure: A typical symptom associated with senescence as a direct consequence of increased reactive oxygen species is lipid peroxidation. Therefore the levels of MDA, a decomposition product of lipid peroxidation, were measured in detached wheat leaves that were exposed to the prepared novel derivatives and kinetin for four days in the dark as described in Example 8. MDA levels were measured using a thiobarbituric acid (TBA) method. In detail, 100 mg of fresh plant material was homogenized by high speed shaking in a ball mill (MM301, Retsch, Germany) with 1 mL of 80% methanol. The crude extract was centrifuged at 10,000×g for 5 min, and 100 μL aliquot of supernatant was vortexed with 100 μL of 0.5% (w/v) TBA containing 0.1% (w/v) trichloroacetic acid, and the resulting solution was then incubated for 30 min at 95° C. The samples were quickly cooled on ice and recentrifuged for 5 min at 1000×g. The absorbance of supernatant was measured at 532 nm with background subtraction at 600 nm and the amount of MDA-TBA complex was calculated from the coefficient of absorbance 155 mM^−1cm^−1.
as §1

[3] = tested on: Salmonella typhimurium histidien auxotrophs TA98 and TA100; test: Ames test; type: cell-based; settings: 2.5 to 5000 μg/plate; presence and absence of Aroclor-induced rat liver S9
Procedure: A number of tests related to the safety of have been carried out using conventionally accepted protocols and procedures. The results of these studies are summarized herein. Tests were carried out using DMSO as solvent and dose levels of compound 21, 24, 26, 27, 39, 41, 45, 48, 50, 52, 53, 54, 55, 56, 63, 64, 66, 67, 68, 69, 70, 71, 72, 74, 76, 124, 125, 126, 127, 128, 129, 130, 145, 146, 147, 149, 150, 151, 208, 216, 218 a 243 at 2.5, 5.0, 15, 50, 500, 1500, and 5000 μg/plate based upon standard protocol and procedures (Ames et al., Mutation Research, 31, 347-364 (1975); Maron et al., Mutation Research, 113, 173-215 (1983)).

[4] = tested on: human diploid fibroblasts (HDF cells; HDF25, HDF45, HDF80); test: Inhibition of human cell aging: senescent cells by beta-galactosidase staining; type: cell-based; settings: for SENESCENT CELLS (%) HDF25: human diploid fibroblasts passage 25, beta-galactosidase staining; for SENESCENT CELLS (%) HDF45: human diploid fibroblasts passage 45, beta-galactosidase staining; for SENESCENT CELLS (%) HDF80: human diploid fibroblasts passage 80, beta-galactosidase staining
Procedure: In this example, human diploid fibroblasts (HDF cells of various passage levels: passage 25—designated HDF25; passage 45—designated HDF45; passage 80—designated HDF80) were stained for beta-galactosidase activity. The medium used for the cell cultivation was removed the cells were washed twice in […], and fixed in 2-3 ml of fixing solution comprised of a 2% formaldehyde and 0.2% glutaraldehyde in PBS. The cells were incubated at room temperature for 5 minutes, and then washed twice with PBS. The cells were subsequently incubated at 37° C. […] In this experiment, senescent cells, but no other cells were stained blue due to the action of beta-galactosidase on the substrate.

[5] = tested on: cytokinin-dependent tobacco callus Nicotiana tabacum L. cv. Wisconsin 38; test: Plant cell division: growth of cytokinin-dependent tobacco callus; type: cell-based; settings: for Activity (%); (s.d.): relative activity at concentration with highest activity, 10^−6 M kinetin set at 100%; for Concentration with highest activity (mol/l): tobacco callus fresh weight increase after four weeks, tested 10^−8 M to 10^−4 M
Procedure: Cytokinin-dependent tobacco callus Nicotiana tabacum L. cv. Wisconsin 38 was maintained at 25° C. in darkness on modified MS medium, containing 4 μmol/l nicotinic acid, 2.4 μmol/l pyridoxine hydrochloride, 1.2 μmol/l thiamine, 26.6 μmol/l glycine, 1.37 μmol/l glutamine, 1.8 μmol/l myo-inositol, 30 g/l of sucrose, 8 g/l of agar, 5.37 μmol/l NAA and 0.5 μmol/l BAP. Subcultivation was carried out every three weeks. Fourteen days before the bioassay, the callus tissue was transferred to the media without BAP. Biological activity was determined from the increase in fresh callus weight after four weeks of cultivation. Five replicates were prepared for each cytokinin concentration and the entire test was repeated twice. From the obtained data, the concentration with highest activity was selected for each compound tested. Relative activity at this concentration was calculated (see Table 17 below). The activity obtained for 10^−6 M kinetin (Kin) was set as 100%.
The cytokinins to be tested were dissolved in dimethylsulfoxide (DMSO) and the solution brought up to 10^−3M with distilled water.

Row | SMILES | Activity (%) (s.d.), retention of chlorophyll [1] | MDA (nmol/g FW) [2] | further results
1 | Clc1nc2c(NCc3ccco3)ncnc2n1C1CCCCO1 (centres unmarked) [Compound 1, 8-Chloro-6-furfurylamino-9-(tetrahydropyran-2-yl)-9H-purine] | 105 (±3) % | 12.8 (±1.0) nmol/g FW | –
2 | CC(C)=CCNc1ncnc2c1nc(NCCO)n2C1CCCO1 (centres unmarked) [Compound 245] | – | 9.5 (±0.6) nmol/g FW | –
3 | Oc1ccc(Nc2ncnc3c2nc(Cl)n3C2CCCCO2)cc1 (centres unmarked) [Compound 16] | – | 11.6 (±1.0) nmol/g FW | –
4 | Oc1ccc(CNc2ncnc3c2nc(Br)n3C2CCCCO2)cc1O (centres unmarked) [Compound 39] | 128 (±3) % | 11.6 (±1.2) nmol/g FW | mutagenic response [3]: no positive mutagenic responses; SENESCENT CELLS (%) HDF25 [4]: 3%; SENESCENT CELLS (%) HDF45 [4]: 4%; SENESCENT CELLS (%) HDF80 [4]: 20%
5 | Oc1ccc(Nc2ncnc3c2nc(Br)n3C2CCCCO2)cc1 (centres unmarked) [Compound 44] | – | 10.7 (±0.8) nmol/g FW | –
6 | COc1cc(CNc2ncnc3c2nc(Cl)n3C2CCCCO2)cc(OC)c1O (centres unmarked) [Compound 14] | – | 12.2 (±1.4) nmol/g FW | –
7 | Oc1ccc(CNc2ncnc3c2nc(Cl)n3C2CCCCO2)cc1O (centres unmarked) [Compound 10] | 132 (±7) % | 12.8 (±1.1) nmol/g FW | –
8 | Oc1ccc(CNc2ncnc3c2nc(Cl)n3C2CCCCO2)cc1 (centres unmarked) [Compound 13] | – | 11.9 (±1.3) nmol/g FW | –
9 | Nc1nc2c(NCc3ccco3)ncnc2n1C1CCCO1 (centres unmarked) [Compound 197] | – | 9.2 (±0.6) nmol/g FW | –
10 | Brc1nc2c(NCc3ccco3)ncnc2n1C1CCCCO1 (centres unmarked) [Compound 21, 8-Bromo-6-furfurylamino-9-(tetrahydropyran-2-yl)-9H-purine] | 108 (±3) % | 12.1 (±1.2) nmol/g FW | mutagenic response [3]: no positive mutagenic responses; SENESCENT CELLS (%) HDF25 [4]: 3%; SENESCENT CELLS (%) HDF45 [4]: 5%; SENESCENT CELLS (%) HDF80 [4]: 20%
11 | NCCNc1nc2c(NCc3ccco3)ncnc2n1C1CCCO1 (centres unmarked) [Compound 233] | – | 9.8 (±0.7) nmol/g FW | –
12 | C/C(=C/CNc1ncnc2c1nc(Br)n2C1CCCCO1)CO (centres unmarked) [Compound 25] | – | 11.7 (±1.1) nmol/g FW | –
13 | C/C(=C/CNc1ncnc2c1nc(N(C)C)n2C1CCCO1)CO (centres unmarked) [Compound 189] | – | 10.8 (±0.9) nmol/g FW | –
14 | NCCCNc1nc2c(NCc3ccco3)ncnc2n1C1CCCO1 (centres unmarked) [Compound 238] | – | 9.4 (±0.7) nmol/g FW | –
15 | NCCCOc1nc2c(NCc3ccco3)ncnc2n1C1CCCO1 (centres unmarked) [Compound 241] | – | 9.6 (±0.8) nmol/g FW | –
16 | Oc1nc2c(NCc3ccco3)ncnc2n1C1CCCO1 (centres unmarked) [Compound 221] | – | 10.2 (±0.5) nmol/g FW | –
17 | C/C(=C/CNc1ncnc2c1nc(Br)n2C1CCCO1)CO (centres unmarked) [Compound 74] | 127 (±5) % | – | Activity (%); (s.d.) [5]: 122 (±4) %; Concentration with highest activity (mol/l) [5]: 10^−6-10^−4 mol/l; mutagenic response [3]: no positive mutagenic responses; SENESCENT CELLS (%) HDF25 [4]: 3%; SENESCENT CELLS (%) HDF45 [4]: 5%; SENESCENT CELLS (%) HDF80 [4]: 21%
18 | Nc1nc2c(NCc3ccc(O)cc3)ncnc2n1C1CCCO1 (centres unmarked) [Compound 201] | – | 8.7 (±0.7) nmol/g FW | –
19 | Oc1ccc(CNc2ncnc3c2nc(O)n3C2CCCO2)cc1 (centres unmarked) [Compound 224] | – | 9.3 (±0.8) nmol/g FW | –
20 | Fc1cccc(CNc2ncnc3c2nc(Cl)n3C2CCCO2)c1 (centres unmarked) [Compound 71] | 119 (±3) % | – | Activity (%); (s.d.) [5]: 116 (±2) %; Concentration with highest activity (mol/l) [5]: 10^−6-10^−4 mol/l; mutagenic response [3]: no positive mutagenic responses; SENESCENT CELLS (%) HDF25 [4]: 3%; SENESCENT CELLS (%) HDF45 [4]: 6%; SENESCENT CELLS (%) HDF80 [4]: 19%
